Data: patent US20260317324A1, “BIFUNCTIONAL COMPOUNDS FOR DEGRADING BRAF VIA UBIQUITIN PROTEOSOME PATHWAY” (Nurix Therapeutics, Inc., priority 2023, published 2026)

Legend:
Format in all cases: cell-based
BRAF V600E = target: T1, BRAF V600E (Homo sapiens, UniProt P15056, V600E); assay: BRAF HiBiT degradation assay, C-terminal HiBiT-tagged BRAF V600E A375 cells (clone 1F10), Nano-Glo HiBiT Lytic assay; settings: for Dmax: A-375
T1 construct: endogenous C-terminal HiBiT fusion tag on BRAF V600E allele; endogenous in cells; host or cells: A375 clone 1F10 (CRISPR-Cas9 knock-in of the HiBiT tag; parental A375 from ATCC)
In short: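 Luminescence read-out: Nano-Glo HiBiT lytic reagent with LgBiT, 10 min at room temperature. Signal normalised to DMSO-treated tagged cells, with wildtype A375 as background. Cells are endogenously tagged BRAF V600E A375 clone 1F10. Compounds were tested from 1 μM to 0.01 nM; Dmax is observed % degraded at maximal effect.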

BRAF G469A = target: T2, BRAF G469A (Homo sapiens, UniProt P15056, G469A); assay: BRAF HiBiT degradation assay, C-terminal HiBiT-tagged BRAF G469A overexpressed in HCT-116 BRAF−/− cells (clone 34), Nano-Glo HiBiT Lytic assay; settings: BRAF G469A (Class 2), HCT-116 BRAF−/− cells; for DC50: DC50 at 50% degradation; for Dmax: observed Dmax relative to DMSO control
T2 construct: Horizon Discovery (HCT-116 BRAF−/− cells); host or cells: HCT-116 BRAF−/− cells, clone 34, lentiviral transduction
Text: (§1) An A375 cell line expressing a homozygous V600E mutation was purchased from ATCC (Manassas, VA, USA). An A375 clone 1F10 cell line with an endogenous C-terminal HiBiT fusion tag on BRAF V600E allele was generated internally using CRISPR-Cas9 technology and cultured in DMEM, high glucose supplemented with 10% FBS and 1× GlutaMAX. A HCT-116 BRAF−/− cell line overexpressing the C-terminal HiBiT-tagged G466V, G469A, and D594G mutants were generated by lentiviral transduction, externally at Biosettia Inc (San Diego, CA, USA). The stably transfected cells were cultured in RPMI media supplemented with 10% FBS, 1× GlutaMAX, and 0.25 μg/ml puromycin. DMEM medium, RPMI 1640 medium, GlutaMAX, fetal bovine serum (FBS), and puromycin were purchased from Gibco (Grand Island, NY, USA). HCT-116 BRAF−/− cells were purchased from Horizon Discovery (Waterbeach, UK).
(§2) The C-terminal HiBiT tagged mutant BRAF G466V, G469A, and D594G overexpressed in HCT-116 BRAF−/− cells (monoclonal cell line, cell clones 8, 34, and 63, respectively) were seeded at the density of 3,000 cells/well in 30 μL media (RPMI supplemented with 10% FBS and 1× GlutaMAX) in white opaque 384-well plates (Corning #3570) from column 1 to column 23. Wildtype HCT-116 BRAF cells were seeded in column 24 at the same cell density in 30 μL media. Cells were incubated at 37° C. with 5% CO2 for 24 h.
(§3) Intermediate compound dilution series (5-point, ranging from 5 mM to 0.5 μM, 10-fold dilutions in DMSO) were prepared in a source plate (Beckman Coulter cat. no. 001-16128). Final compound dilution series (11-point, ranging from 1 μM to 0.01 nM, half-log dilutions in DMSO) were stamped into the assay plate (Corning #3570, column 1-11 and 12-22) using the Echo Acoustic Liquid Handler (Beckman Coulter). Each compound was plated in duplicate, and the total volume of compound DMSO solution was 60 nL/well (0.2% final DMSO concentration). DMSO was included in wells A23-L23 and A24-L24. The DMSO-treated HiBiT-tagged samples served as Negative Control (NC) and the DMSO-treated wildtype samples served as Background Control (BC) for the HiBiT assay.
(§4) HiBiT signal was measured by a Nano-Glo HiBiT Lytic assay (Promega cat. no. N3050). HiBiT lytic detection reagent (Nano-Glo HiBiT Lytic Buffer with 1:50 Nano-Glo HiBiT Lytic Substrate and 1:100 LgBiT Protein, 40 μL) was added using Bravo. The mixture was incubated at room temperature, in the dark, and with gentle shaking for 10 min. Luminesce units (LU) were read on an EnVision plate reader 2105 (Perkin Elmer).
(§5) Percent protein remaining and viability remaining per sample were calculated as follows: […]
(§6) % Protein remaining values were plotted as a function of compound concentration. XC50 (DC50) values were determined by fitting curves using the following equation:
(§7) For the HiBiT degradation assay, the key parameters reported include: • The dose of compound that produces 50% degradation (DC50 at 50%): • DC50 at 50%: the Fitted X value (Conc.) at Y=50 (response) • Observed Dmax (Obs. Dmax) is the percentage protein degraded at maximal compound effect relative to DMSO-treated control: […]

BRAF G466V = target: T3, BRAF G466V (Homo sapiens, UniProt P15056, G466V); assay: BRAF HiBiT degradation assay, C-terminal HiBiT-tagged BRAF G466V overexpressed in HCT-116 BRAF−/− cells (clone 8), Nano-Glo HiBiT Lytic assay; settings: BRAF G466V (Class 3), HCT-116 BRAF−/− cells; for DC50: DC50 at 50% degradation; for Dmax: observed Dmax relative to DMSO control
T3 construct: Horizon Discovery (HCT-116 BRAF−/− cells); host or cells: HCT-116 BRAF−/− cells, clone 8, lentiviral transduction
Text: as §1, §2, §3, §4, §5, §6, §7

BRAF D594G = target: T4, BRAF D594G (Homo sapiens, UniProt P15056, D594G); assay: BRAF HiBiT degradation assay, C-terminal HiBiT-tagged BRAF D594G overexpressed in HCT-116 BRAF−/− cells (clone 63), Nano-Glo HiBiT Lytic assay; settings: BRAF D594G (Class 3), HCT-116 BRAF−/− cells; for DC50: DC50 at 50% degradation; for Dmax: observed Dmax relative to DMSO control
T4 construct: Horizon Discovery (HCT-116 BRAF−/− cells); host or cells: HCT-116 BRAF−/− cells, clone 63, lentiviral transduction
Text: as §1, §2, §3, §4, §5, §6, §7

[1] = A375 (BRAF V600E, Class 1), DC50 at 50% degradation
[2] = A375 (BRAF V600E, Class 1), observed Dmax, % protein degraded relative to DMSO control
[3] = A375 (BRAF V600E), DC50 at 50%: fitted conc. at Y=50
[4] = A375 (BRAF V600E), percentage protein degraded at maximal compound effect relative to DMSO

T4 sequence (P15056 whole entry D594G): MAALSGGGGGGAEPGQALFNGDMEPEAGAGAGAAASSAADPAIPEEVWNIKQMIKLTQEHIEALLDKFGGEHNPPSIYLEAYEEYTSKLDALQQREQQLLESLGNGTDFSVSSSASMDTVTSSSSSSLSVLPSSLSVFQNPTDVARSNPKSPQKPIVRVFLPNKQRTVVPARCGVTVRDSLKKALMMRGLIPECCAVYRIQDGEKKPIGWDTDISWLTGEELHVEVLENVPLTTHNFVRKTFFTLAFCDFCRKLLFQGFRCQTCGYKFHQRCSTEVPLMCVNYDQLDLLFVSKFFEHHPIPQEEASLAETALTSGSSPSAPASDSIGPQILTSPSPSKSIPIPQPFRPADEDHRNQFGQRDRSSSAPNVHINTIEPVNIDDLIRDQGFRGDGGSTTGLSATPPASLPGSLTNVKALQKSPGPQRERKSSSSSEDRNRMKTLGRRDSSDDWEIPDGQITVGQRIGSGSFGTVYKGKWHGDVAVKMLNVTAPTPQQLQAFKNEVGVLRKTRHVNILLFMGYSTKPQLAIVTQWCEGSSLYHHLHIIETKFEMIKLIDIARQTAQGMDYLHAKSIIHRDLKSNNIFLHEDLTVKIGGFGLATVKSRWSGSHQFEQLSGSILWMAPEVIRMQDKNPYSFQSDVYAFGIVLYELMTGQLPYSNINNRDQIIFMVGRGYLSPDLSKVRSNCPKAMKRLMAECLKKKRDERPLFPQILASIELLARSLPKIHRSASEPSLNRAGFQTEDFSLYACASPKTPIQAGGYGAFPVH
T3 sequence (P15056 whole entry G466V): as the sequence (P15056 whole entry D594G) above, with G466V, G594D counted along it
T1 sequence (P15056 whole entry V600E, the tested form may be a part): as the sequence (P15056 whole entry D594G) above, with G594D, V600E counted along it
T2 sequence (P15056 whole entry G469A): as the sequence (P15056 whole entry D594G) above, with G469A, G594D counted along it

Structure (SMILES)	DC50 (BRAF V600E; [1])	Dmax (BRAF V600E; [2])	DC50 (BRAF G469A)	Dmax (BRAF G469A)	DC50 (BRAF G466V)	Dmax (BRAF G466V)	DC50 (BRAF D594G)	Dmax (BRAF D594G)	DC50 (BRAF V600E; [3])	Dmax (BRAF V600E; [4])
O=C1CCN(c2ccc(N3CCC(CN4CCN(c5ccc(-n6cc(-c7cc(Cl)cc(NS(=O)(=O)N8CC[C@@H](F)C8)c7F)c(-c7ccncc7)n6)cc5)CC4)CC3)cc2)C(=O)N1 [Compound 292, (3R)—N-[5-chloro-3-(1-{4-[4-({1-[4-(2,4-dioxo-1,3-diazinan-1-yl)phenyl]piperidin-4-yl}methyl)piperazin-1-yl]phenyl}-3-(pyridin-4-yl)-1H-pyrazol-4-yl)-2-fluorophenyl]-3-fluoropyrrolidine-1-sulfonamide]	< 10 nM	> 70%	50 to 500 nM	30 to 70%	< 10 nM	30 to 70%	< 10 nM	30 to 70%		
CCCS(=O)(=O)Nc1cc(Cl)cc(-c2cn(-c3ccc(N4CCN(CC5CCN(c6ccc([C@H]7CCC(=O)NC7=O)cc6)CC5)[C@@H](C)C4)cc3)nc2-c2ccncc2)c1F [Compound 278, N-[5-chloro-3-(1-{4-[(3S)-4-[(1-{4-[(3R)-2,6-dioxopiperidin-3-yl]phenyl}piperidin-4-yl)methyl]-3-methylpiperazin-1-yl]phenyl}-3-(pyridin-4-yl)-1H-pyrazol-4-yl)-2-fluorophenyl]propane-1-sulfonamide]	< 10 nM	> 70%	> 500 nM	30 to 70%	< 10 nM	> 70%	50 to 500 nM	30 to 70%		
CCCS(=O)(=O)Nc1cccc(-c2nc(C(C)(C)C)sc2-c2ccnc(NC3CC4(CCN(CC5CCN(c6ccc([C@H]7CCC(=O)NC7=O)cc6)CC5)CC4)C3)n2)c1F [Compound 133, N-(3-{2-tert-butyl-5-[2-({7-[(1-{4-[(3R)-2,6-dioxopiperidin-3-yl]phenyl}piperidin-4-yl)methyl]-7-azaspiro[3.5]nonan-2-yl}amino)pyrimidin-4-yl]-1,3-thiazol-4-yl}-2-fluorophenyl)propane-1-sulfonamide]									10 to 50 nM	30 to 70%
CCCS(=O)(=O)Nc1cccc(-c2nc(C(C)(C)C)sc2-c2ccnc(Nc3cccc(OC4CCN(C(=O)[C@H]5CC[C@H](Oc6ccc(C7CCC(=O)NC7=O)cc6)CC5)CC4)c3)n2)c1F (mixture of isomers) [Compound 98, N-{3-[2-tert-butyl-5-(2-{[3-({1-[(1r,4r)-4-{4-[(3RS)-2,6-dioxopiperidin-3-yl]phenoxy}cyclohexanecarbonyl]piperidin-4-yl}oxy)phenyl]amino}pyrimidin-4-yl)-1,3-thiazol-4-yl]-2-fluorophenyl}propane-1-sulfonamide]									10 to 50 nM	30 to 70%
CCCS(=O)(=O)Nc1cccc(-c2nc(C)sc2-c2ccnc(Nc3ccc(C4CCN(CC5CCN(c6ccc(C7CCC(=O)NC7=O)cn6)CC5)CC4)cc3)n2)c1F (racemic) [Compound 54, Rac-N-[3-(5-{2-[(4-{1-[(1-{5-[(3R)-2,6-dioxopiperidin-3-yl]pyridin-2-yl}piperidin-4-yl)methyl]piperidin-4-yl}phenyl)amino]pyrimidin-4-yl}-2-methyl-1,3-thiazol-4-yl)-2-fluorophenyl]propane-1-sulfonamide]									< 10 nM	> 70%
CCCS(=O)(=O)Nc1cccc(-c2nc(C(C)(C)C)sc2-c2ccnc(NCC3CCN(CC4CCN(c5ccc([C@H]6CCC(=O)NC6=O)cc5)CC4)CC3)n2)c1F [Compound 145, N-[3-(2-tert-butyl-5-{2-[({1-[(1-{4-[(3R)-2,6-dioxopiperidin-3-yl]phenyl}piperidin-4-yl)methyl]piperidin-4-yl}methyl)amino]pyrimidin-4-yl}-1,3-thiazol-4-yl)-2-fluorophenyl]propane-1-sulfonamide]									> 500 nM	30 to 70%

Results, then the molecule that gave them:

DC50 (BRAF V600E; [1])	Dmax (BRAF V600E; [2])	DC50 (BRAF G469A)	Dmax (BRAF G469A)	DC50 (BRAF G466V)	Dmax (BRAF G466V)	DC50 (BRAF D594G)	Dmax (BRAF D594G)	DC50 (BRAF V600E; [3])	Dmax (BRAF V600E; [4])	Structure (SMILES)
< 10 nM	> 70%	50 to 500 nM	30 to 70%	10 to 50 nM	30 to 70%	< 10 nM	30 to 70%			O=C1CCN(c2ccc(N3CCC(CN4CCN(c5ccc(-n6cc(-c7cc(F)cc(NS(=O)(=O)N8CC[C@@H](F)C8)c7F)c(-c7ccncc7)n6)nc5)CC4)CC3)cc2)C(=O)N1 [Compound 303, (3R)—N-[3-(1-{5-[4-({1-[4-(2,4-dioxo-1,3-diazinan-1-yl)phenyl]piperidin-4-yl}methyl)piperazin-1-yl]pyridin-2-yl}-3-(pyridin-4-yl)-1H-pyrazol-4-yl)-2,5-difluorophenyl]-3-fluoropyrrolidine-1-sulfonamide]
< 10 nM	> 70%	50 to 500 nM	30 to 70%	< 10 nM	30 to 70%	< 10 nM	30 to 70%			C[C@@H]1CN(c2ccc(-n3cc(-c4cc(Cl)cc(NS(=O)(=O)N5CC[C@@H](F)C5)c4F)c(-c4ccncc4)n3)nc2)CCN1CC1CCN(c2ccc(N3CCC(=O)NC3=O)cc2)CC1 [Compound 322, (3R)—N-[5-chloro-3-(1-{5-[(3R)-4-({1-[4-(2,4-dioxo-1,3-diazinan-1-yl)phenyl]piperidin-4-yl}methyl)-3-methylpiperazin-1-yl]pyridin-2-yl}-3-(pyridin-4-yl)-1H-pyrazol-4-yl)-2-fluorophenyl]-3-fluoropyrrolidine-1-sulfonamide]
10 to 50 nM	> 70%	< 10 nM	30 to 70%	10 to 50 nM	> 70%	10 to 50 nM	30 to 70%			CCN(C)S(=O)(=O)Nc1cc(F)cc(-c2cn(-c3ccc(N4CCN(CC5CCN(c6ccc([C@H]7CCC(=O)NC7=O)cc6)CC5)CC4)cc3)nc2-c2ccncc2)c1F [Compound 377, (3R)-3-(4-{4-[(4-{4-[4-(3-{[ethyl(methyl)sulfamoyl]amino}-2,5-difluorophenyl)-3-(pyridin-4-yl)-1H-pyrazol-1-yl]phenyl}piperazin-1-yl)methyl]piperidin-1-yl}phenyl)piperidine-2,6-dione]
